From patent US11274091B2 (Dizal (Jiangsu) Pharmaceutical Co., Ltd., priority 2018, dated 2022)

Columns and labels:
[1] = molecular target: human TRPC3 ion channel (Homo sapiens (Human), UniProt Q13507); experiment: Inhibition of TRPC3 FLIPR Assay (membrane potential dye, OAG challenge); format: cell-based; details: TRPC3 transfected AD293 cells, OAG at EC80; most potent isolated isomer; mean of minimum 2 experiments
Text: (§1) TRPC3 and TRPC6 channel opening causes an influx of predominantly calcium and sodium cations that result in a change in the electrical potential across the cell membrane. This change in membrane potential can be monitored using membrane potential dyes in the following FLIPR™ (Fluorescent Imaging Plate Reader) assays.
AD293 cells were transfected using the PLVX-puro lentivirus vector containing the coding sequence of the human TRPC3 ion channel. Puromycin-resistant cells were selected by treating with […] puromycin for two weeks. Monoclonal cells were obtained by limiting dilution and compared for their response to OAG in a membrane potential assay. The cells were grown in DMEM+10% fetal bovine serum (FBS)+1 μg/mL puromycin as culture medium.
TRPC3 cells were plated at 9K/well into 384-well polystyrene plates. Cells were grown for 24 h at 37° C. plus 5% CO2 after which media was aspirated using a Tecan plate washer and replaced with 40 μL of dye loading buffer (130 mM NaCl, 5 mM KCl, 0.15 mM CaCl2, 1 mM MgCl2, 20 mM HEPES ((4-(2-hydroxyethyl)-1-piperazineethanesulfonic acid)), 5 mM NaHCO3). For TRPC3 a final concentration of 0.5× membrane potential dye (Molecular Devices Membrane Blue, FLIPR Membrane Potential Assay Kit (bulk), Product #R8034(BLUE), Molecular Devices, Sunnyvale, Calif., 94089, USA) was used. Cells with membrane potential dye were then incubated for 30 mins at room temperature prior to beginning the experiments.
To test the effects of compounds on TRPC3 activity, compounds were first diluted in 100% DMSO to 3× the final concentration to be used in the experiments. Typical dose-response experiments ranged from 10 μM (top concentration) to 0.5 nM (lowest concentration). Ten microliters of 5× compound in 0.5% DMSO were added to 40 μL of cells incubated with membrane potential dye. Compound addition was performed on a FLIPRTetra or a FLIPR 384 (MDS Analytical Technologies). After a 400 second incubation with compound, 12.5 μL of OAG was added at 5× the EC80 (typical EC80 for TRPC3=2 μM final). The OAG challenge is designed to measure the inhibitory activity of compounds on receptor-operated TRPC3 activation.
(§2) All data was normalized to low controls (buffer alone) or high controls (OAG EC100). Data was analyzed using an XC50 curve fitting module and reported as pIC50 or IC50 values. The values are averaged to determine a mean value, for a minimum of 2 experiments.

[2] = molecular target: human TRPC6 ion channel (Homo sapiens (Human), UniProt Q9Y210); experiment: Inhibition of TRPC6 FLIPR Assay (membrane potential dye, OAG challenge); format: cell-based; details: TRPC6-HEK293 cells, OAG at EC80; most potent isolated isomer; mean of minimum 2 experiments
Text: as §1
TRPC6-HEK293 was purchased from PerkinElmer (PerkinElmer, Product No.: AX-012-C), HEK293 cells were transfected using the pcDNA3.1(+)expression vector containing the coding sequence of the human TRPC6 ion channel. The coding sequence used is identical to coding sequence of GenBank NM_004621 with the exception of 2 synonym variations (t1683c and c2529t). The cells were grown in DMEM+10% fetal bovine serum (FBS) 0.5 mg/ml. Geneticin (ion channel expression selection) as culture medium.
TRPC6 cells were plated at 10K cells/well into 384-well polystyrene plates and then grown for 24 hs at 37° C. plus 5% CO2. After this time the media was aspirated using a Tecan plate washer and then replaced with 40 μL of dye loading buffer (130 mM NaCl, 5 mM KCl, 0.15 mM CaCl2, 1 mM MgCl2, 20 mM HEPES ((4-(2-hydroxyethyl)-1-piperazineethanesulfonic acid)), 5 mM NaHCO3). For TRPC6, a final concentration of 0.5× is used. Cells with membrane potential dye were then incubated for 30 mins at room temperature prior to beginning the experiments.
To test the effects of compounds on TRPC6 activity, compounds were first diluted in 100% DMSO to 3× the final concentration to be used in the experiments. Typical dose-response experiments ranged from 10 μM (top concentration) to 0.5 nM (lowest concentration). Ten microliters of […] compound in 0.5% DMSO were added to 40 μL of cells incubated with membrane potential dye. Compound addition was performed on a FLIPRTetra or a FLIPR 384 (MDS Analytical Technologies, Molecular Devices, Sunnyvale, Calif., 94089, USA). After a 400 second incubation with compound, […] OAG (1-oleoyl-2-acetyl-sn-glycerol (OAG), Sigma, Gillingham, Dorset, SP8 4XT Cat #O6754-10 MG) was added at 5× the EC80 (typical EC80 for TRPC6=3 μM final). The OAG challenge is designed to measure the inhibitory activity of compounds on receptor-operated TRPC6 activation.
as §2

Chain of human TRPC6 ion channel (Q9Y210 whole entry): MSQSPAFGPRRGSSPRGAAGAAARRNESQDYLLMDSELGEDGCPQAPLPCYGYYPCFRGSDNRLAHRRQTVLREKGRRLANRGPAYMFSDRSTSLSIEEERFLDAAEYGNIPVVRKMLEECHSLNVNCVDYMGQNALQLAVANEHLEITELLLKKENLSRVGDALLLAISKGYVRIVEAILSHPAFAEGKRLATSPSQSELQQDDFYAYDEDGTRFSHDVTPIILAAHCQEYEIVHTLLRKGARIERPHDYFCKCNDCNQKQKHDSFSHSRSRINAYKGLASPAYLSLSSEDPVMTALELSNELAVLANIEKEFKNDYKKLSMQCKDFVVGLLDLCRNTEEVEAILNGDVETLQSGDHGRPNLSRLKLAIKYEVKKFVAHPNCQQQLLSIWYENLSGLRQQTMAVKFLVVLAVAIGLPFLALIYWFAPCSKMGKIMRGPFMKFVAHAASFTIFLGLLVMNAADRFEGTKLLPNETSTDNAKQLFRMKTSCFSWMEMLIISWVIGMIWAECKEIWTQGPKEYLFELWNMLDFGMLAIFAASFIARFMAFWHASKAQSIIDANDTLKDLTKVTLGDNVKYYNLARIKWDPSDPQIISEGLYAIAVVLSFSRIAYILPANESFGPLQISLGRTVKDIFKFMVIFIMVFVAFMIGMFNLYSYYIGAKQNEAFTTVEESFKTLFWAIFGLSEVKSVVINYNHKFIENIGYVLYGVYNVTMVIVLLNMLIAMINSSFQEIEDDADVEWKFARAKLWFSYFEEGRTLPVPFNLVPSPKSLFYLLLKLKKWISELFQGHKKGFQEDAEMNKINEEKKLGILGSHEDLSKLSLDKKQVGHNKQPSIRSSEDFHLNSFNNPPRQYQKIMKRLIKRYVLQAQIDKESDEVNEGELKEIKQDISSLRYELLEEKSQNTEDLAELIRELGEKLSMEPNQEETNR
Chain of human TRPC3 ion channel (Q13507 whole entry): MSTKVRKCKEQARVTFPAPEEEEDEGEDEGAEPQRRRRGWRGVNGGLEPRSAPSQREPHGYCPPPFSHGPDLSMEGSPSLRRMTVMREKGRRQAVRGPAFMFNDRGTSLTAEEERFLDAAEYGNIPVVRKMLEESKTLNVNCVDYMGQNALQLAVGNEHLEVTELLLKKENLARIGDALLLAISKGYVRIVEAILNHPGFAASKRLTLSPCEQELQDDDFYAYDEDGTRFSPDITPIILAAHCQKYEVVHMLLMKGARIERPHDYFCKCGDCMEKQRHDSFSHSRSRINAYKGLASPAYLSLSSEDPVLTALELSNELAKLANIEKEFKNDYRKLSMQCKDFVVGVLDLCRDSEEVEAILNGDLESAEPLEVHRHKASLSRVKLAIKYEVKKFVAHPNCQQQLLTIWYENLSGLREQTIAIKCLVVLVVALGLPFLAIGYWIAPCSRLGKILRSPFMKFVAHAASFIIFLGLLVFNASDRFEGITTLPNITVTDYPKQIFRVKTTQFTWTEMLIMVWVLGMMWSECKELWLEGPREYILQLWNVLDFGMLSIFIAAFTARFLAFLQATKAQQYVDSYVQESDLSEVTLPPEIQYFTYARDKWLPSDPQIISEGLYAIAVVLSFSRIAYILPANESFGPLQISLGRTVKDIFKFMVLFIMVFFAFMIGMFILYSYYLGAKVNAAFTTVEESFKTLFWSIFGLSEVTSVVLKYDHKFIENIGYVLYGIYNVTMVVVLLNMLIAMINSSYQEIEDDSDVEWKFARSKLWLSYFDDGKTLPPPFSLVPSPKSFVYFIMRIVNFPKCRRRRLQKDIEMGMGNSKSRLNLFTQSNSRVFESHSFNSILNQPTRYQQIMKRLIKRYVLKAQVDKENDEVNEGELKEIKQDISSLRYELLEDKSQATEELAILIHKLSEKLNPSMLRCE

How did the IC50 [1] turn out when `NC1CCCN(C2CC(c3ccc(F)cc3)CC2Oc2cccnn2)C1` (stereo not shown) [Example 28, 1-[4-(4-fluorophenyl)-2-pyridazin-3-yloxy-cyclopentyl]piperidin-3-amine] was run?
The IC50 was 0.0322 µM.

What about the IC50 [2] of the same molecule?
The IC50 was 0.0178 µM.

For `NC1CC(F)CN(C2CC(c3ccc(F)cc3)CC2Oc2ccncn2)C1` (stereo not shown) [Example 29, 5-fluoro-1-[4-(4-fluorophenyl)-2-pyrimidin-4-yloxy-cyclopentyl]piperidin-3-amine], which IC50 [1] is on record?
The IC50 was 0.00368 µM.

And the IC50 [2]?
Its IC50 is 0.00344 µM.

Which IC50 [1] does the source give for `N#Cc1cnc(OC2CC(c3ccc(F)cc3)CC2N2CCCC(N)C2)nc1` (stereo not shown) [Example 30, 2-[2-(3-amino-1-piperidyl)-4-(4-fluorophenyl)cyclopentoxy]pyrimidine-5-carbonitrile] here?
The IC50 was 0.024 µM.

What about the IC50 [2] of the same molecule?
The IC50 was 0.0115 µM.

For `N#Cc1cnc(OC2CC(c3ccc(F)cc3)CC2N2CCCC(N)C2)cn1` (stereo not shown) [Example 31, 5-[2-(3-amino-1-piperidyl)-4-(4-fluorophenyl)cyclopentoxy]pyrazine-2-carbonitrile], which IC50 [1] is on record?
The IC50 was 0.0255 µM.

What about the IC50 [2] of the same molecule?
The IC50 was 0.0137 µM.

Which IC50 [1] does the source give for `N#Cc1ncc(OC2CC(c3ccc(F)cc3)CC2N2CCCC(N)C2)cn1` (stereo not shown) [Example 32, 5-[2-(3-amino-1-piperidyl)-4-(4-fluorophenyl)cyclopentoxy]pyrimidine-2-carbonitrile] here?
The IC50 was 0.0392 µM.

What about the IC50 [2] of the same molecule?
Its IC50 is 0.0106 µM.
